Holding throughout (assay type): cell-based
Assay [1] has as its system cellular microtubules (MTs) in COS 1 cells. As to the kind of experiment: VP22 deletion mutants transfected into COS 1 cells, immunofluorescence with anti VP22 antibody AGV30: MT bundling and movement between cells. To be noted: transfected COS 1 cells. The source says:
To broadly identify the region of VP22 involved in MT interaction, we utilised a range of C terminal deletion mutants of the protein. The plasmids encoding WT, del-267, del-192 and del-119 (FIG. 3a) forms of VP22 were transfected into COS 1 cells and analysed by immunofluorescence using the anti VP22 antibody AGV30. The del-267 and del-119 constructs comprise respectively aminoacids 1–267 inclusive, and aminoacids 1–119 inclusive of the wild type sequence of VP22 of HSV1 as disclosed in above-cited WO 97/05265 and references cited therein. The del-192 construct consists of aminoacids 1–191 inclusive plus a residue 192 mutated to leucine.
In these examples the longer sequences have increasing efficiency.

Assay [2] shares this test system.
Assay [3] shares this test system. As to the kind of experiment: Double immunofluorescence (anti-VP22, anti alpha tubulin) of COS 1 cells expressing VP22: co-localisation with and bundling of microtubules. The text has this:
To investigate the possibility that the pattern of localisation in cells expressing VP22 represents co-localisation with a component of the cytoskeleton, COS 1 cells were transfected with the VP22 expression plasmid pGE109. Forty hours after transfection, the cells were fixed with 100% methanol and double immunofluorescence carried out with antibodies against VP22 (polyclonal AGV30) and alpha tubulin (monoclonal anti alpha tubulin, Sigma).
COS 1 cells treated in the same manner were exposed to the MT stabilising drug taxol (10 microM) for 30 minutes prior to fixation. […] The MT binding property of VP22 can also be used to deliver coupling products between VP22 and other substances, such as taxol or a related compound to MTs.

Assay [4] concerns acetylated form of tubulin. Nature of the assay: Acetylation of MTs: colocalisation immunofluorescence and Western blot with monoclonal antibody specific for acetylated tubulin. The source says:
Acetylation of MTs was previously reported as a marker for MT stability (Piperno et al, J Cell Biol 104 (1987) 289–302). This has been shown by use of monoclonal antibody specific for the acetylated form of tubulin (obtainable from Sigma Chemical), in colocalisation assays by immunofluorescence, and by Western blot assays. This effect can be used as a biochemical marker for analysing and quantitating the level of MT stabilisation induced by VP22 or a variant or derviative thereof.

Consider “1–159: VP22 fragment consisting of residues 1–159”, for which, in assay [1], the “MT bundling / cytoplasmic filament formation by VP22 forms” value is reported as “did not appear to retain the MT-bundling activity”.
Same read-out and setting: the value for “1–172: variant VP22 protein consisting of residues 1–172 of the native VP22 of HSV1” was “retain in some degree the ability to bundle microtubules”.
In the case of `COC(=O)Nc1nc2ccc(C(=O)c3cccs3)cc2[nH]1` [Nocodazole, nocodazole, reference compound], the “Effect of nocodazole on the MT network of untransfected cells” value in assay [2] is reported as “depolymerisation of the MT network”.
Consider `CC(=O)O[C@H]1C(=O)[C@@]2(C)[C@H]([C@H](OC(=O)c3ccccc3)[C@]3(O)C[C@H](OC(=O)[C@H](O)[C@@H](NC(=O)c4ccccc4)c4ccccc4)C(C)=C1C3(C)C)[C@]1(OC(C)=O)CO[C@@H]1C[C@@H]2O` [taxol, reference compound], for which the “Effect on MTs in untransfected cells” value in assay [3] (untransfected COS 1 cells, taxol 10 microM, 30 minutes prior to fixation) is on record as “creating large bundles of MTs”.
As to “VP22: product of the herpes simplex virus type 1 (HSV 1) UL49 gene, the structural tegument protein VP22, 32 kD”, the “Co-localisation with and bundling of the cellular MT network” value in assay [3] (COS 1 cells transfected with pGE109, fixed 40 h after transfection) is “colocalises and reorganises the cellular MT network into bundles”. For the same compound, the “MT bundles in VP22 expressing cells exposed to taxol” value in assay [3] (VP22 expressing COS 1 cells plus taxol 10 microM, 30 minutes) is “these bundles were even more striking and again co-localised with VP22”. The “Stabilisation of MTs against nocodazole depolymerisation” value in assay [2] (VP22 expressing COS 1 cells, nocodazole 500 ng/ml, 30 minutes) is “does not depolymerise the MTs”. Also, the “Stabilisation of MTs against depolymerisation by cold” value in assay [2] (incubation of cells at 4 deg C) was “stabilised MTs against depolymerisation by 4 deg C. incubation”. Also, the “Acetylation of MTs (marker for MT stability)” value in assay [4] is “associated with acetylation of the MTs”. Also, in assay [1], the “MT bundling / cytoplasmic filament formation by VP22 forms” value is “VP22 in cytoplasmic filaments” and the “Movement of the protein between cells (transport)” value is “surrounded by cells with VP22 in their nuclei”.
